Target: T1, beta-tryptase (uniprot P20231) (Homo sapiens, UniProt P20231)
T1 construct: made in house; host or cells: Pichia pastoris
Experiment: Tryptase enzyme activity assay
Type: biochemical
Conditions: 10 µM, n=1
Description: Tryptase Enzyme Activity Assay. The tryptase assay was carried out using beta-tryptase (uniprot P20231) produced in Pichia pastoris and using Tos-Gly-Pro-Lys-pNA as substrate (25 mM stock in ethanol) in 100 mM Tris pH 8.0, 100 mM NaCl, 10% glycerol, 0.5 mg mL-1 BSA, 0.1% DDM. Substrate (250 µM) was pre-incubated with test compound (10 µM) in assay buffer (200 ul) in clear bottom 96 well Greiner plates at room temperature. The re action was started by the addition of tryptase to a final concentration of 4.7 nM. Co nversion was recorded in a plate reader by monitoring the increase of absorption at λ = 405 nm over time. Activity was determined by linear fit of initial rate.

T1 sequence (P20231 31-275): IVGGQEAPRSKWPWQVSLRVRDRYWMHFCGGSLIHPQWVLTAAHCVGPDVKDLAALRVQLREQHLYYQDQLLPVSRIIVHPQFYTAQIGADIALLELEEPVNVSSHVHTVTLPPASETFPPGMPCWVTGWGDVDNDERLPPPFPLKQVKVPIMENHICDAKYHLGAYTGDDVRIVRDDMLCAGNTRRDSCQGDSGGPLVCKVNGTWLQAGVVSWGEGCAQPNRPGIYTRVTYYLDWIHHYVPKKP

Structure (SMILES): N=C(N)Nc1ccc(C(=O)Oc2ccc([N+](=O)[O-])cc2)cc1 [4-nitrophenyl-4-guanidinobenzoate, reference compound]
- inhibition of tryptase activity: completely
